Reference: ChEMBL document CHEMBL4804284
Activity calls are given as the source filed them. The rule behind the calls is not given here.

Tests used:
[1] = target: G protein-coupled receptor kinase 4 (Homo sapiens) (UniProt P32298); assay: Inhibition of DNA-tagged human GRK4 assessed as percent of control at 50000 nM by qPCR analysis relative to control; set-up: scale not given: the % may be the effect or the level left
[2] = test system: Fibroblast growth factor receptor 3 (Homo sapiens), P22607 [G697C]; assay: Inhibition of DNA-tagged human FGFR3 G697C mutant assessed as percent of control at 50000 nM by qPCR analysis relative to control; set-up: scale not given: the % may be the effect or the level left
[3] = target: Fibroblast growth factor receptor 3 (Homo sapiens) (UniProt P22607); assay: Inhibition of DNA-tagged human FGFR3 assessed as percent of control at 50000 nM by qPCR analysis relative to control; set-up: scale not given: the % may be the effect or the level left
[4] = target: Ephrin type-A receptor 8 (Homo sapiens) (UniProt P29322); assay: Inhibition of DNA-tagged human EPHA8 assessed as percent of control at 50000 nM by qPCR analysis relative to control; set-up: scale not given: the % may be the effect or the level left
[5] = target: Ephrin type-A receptor 3 (Homo sapiens) (UniProt P29320); assay: Inhibition of DNA-tagged human EPHA3 assessed as percent of control at 50000 nM by qPCR analysis relative to control; set-up: scale not given: the % may be the effect or the level left
[6] = target: Eukaryotic translation initiation factor 2-alpha kinase 1 (Homo sapiens) (UniProt Q9BQI3); assay: Inhibition of DNA-tagged human EIF2AK1 assessed as percent of control at 50000 nM by qPCR analysis relative to control; set-up: scale not given: the % may be the effect or the level left
[7] = target: Dual specificity tyrosine-phosphorylation-regulated kinase 2 (Homo sapiens) (UniProt Q92630); assay: Inhibition of DNA-tagged human DYRK2 assessed as percent of control at 50000 nM by qPCR analysis relative to control; set-up: scale not given: the % may be the effect or the level left
[8] = target: Myotonin-protein kinase (Homo sapiens) (UniProt Q09013); assay: Inhibition of DNA-tagged human DMPK assessed as percent of control at 50000 nM by qPCR analysis relative to control; set-up: scale not given: the % may be the effect or the level left
[9] = target: Tyrosine-protein kinase CSK (Homo sapiens) (UniProt P41240); assay: Inhibition of DNA-tagged human CSK assessed as percent of control at 50000 nM by qPCR analysis relative to control; set-up: scale not given: the % may be the effect or the level left
[10] = target: Dual specificity protein kinase CLK3 (Homo sapiens) (UniProt P49761); assay: Inhibition of DNA-tagged human CLK3 assessed as percent of control at 50000 nM by qPCR analysis relative to control; set-up: scale not given: the % may be the effect or the level left
[11] = target: Dual specificity protein kinase CLK1 (Homo sapiens) (UniProt P49759); assay: Inhibition of DNA-tagged human CLK1 assessed as percent of control at 50000 nM by qPCR analysis relative to control; set-up: scale not given: the % may be the effect or the level left
[12] = target: Calcium/calmodulin-dependent protein kinase type II subunit beta (Homo sapiens) (UniProt Q13554); assay: Inhibition of DNA-tagged human CAMK2B assessed as percent of control at 50000 nM by qPCR analysis relative to control; set-up: scale not given: the % may be the effect or the level left
[13] = target: Calcium/calmodulin-dependent protein kinase type II subunit alpha (Homo sapiens) (UniProt Q9UQM7); assay: Inhibition of DNA-tagged human CAMK2A assessed as percent of control at 50000 nM by qPCR analysis relative to control; set-up: scale not given: the % may be the effect or the level left
[14] = target: Atypical kinase COQ8A, mitochondrial (Homo sapiens) (UniProt Q8NI60); assay: Inhibition of DNA-tagged human ADCK3 assessed as percent of control at 50000 nM by qPCR analysis relative to control; set-up: scale not given: the % may be the effect or the level left
[15] = test system: Tyrosine-protein kinase ABL1 (Homo sapiens), P00519 [F317L]; assay: Inhibition of DNA-tagged phosphorylated human ABL1 F317L mutant assessed as percent of control at 50000 nM by qPCR analysis relative to control; set-up: scale not given: the % may be the effect or the level left
[16] = test system: OCI-AML-3; assay: Cytotoxicity against human OCI-AML-3 cells at 0.1-100 uM assessed as decrease in cell viability relative to control; type: functional, cell-based
[17] = target: Leucine-rich repeat serine/threonine-protein kinase 2 (Homo sapiens) (UniProt Q5S007); assay: Inhibition of DNA-tagged human LRRK2 assessed as percent of control at 50000 nM by qPCR analysis relative to control; set-up: scale not given: the % may be the effect or the level left
[18] = test system: Leucine-rich repeat serine/threonine-protein kinase 2 (Homo sapiens), Q5S007 [G2019S]; assay: Inhibition of DNA-tagged human LRRK2 G2019S mutant assessed as percent of control at 50000 nM by qPCR analysis relative to control; set-up: scale not given: the % may be the effect or the level left
[19] = target: Mitogen-activated protein kinase kinase kinase kinase 2 (Homo sapiens) (UniProt Q12851); assay: Inhibition of DNA-tagged human MAP4K2 assessed as percent of control at 50000 nM by qPCR analysis relative to control; set-up: scale not given: the % may be the effect or the level left
[20] = target: Muscle, skeletal receptor tyrosine-protein kinase (Homo sapiens) (UniProt O15146); assay: Inhibition of DNA-tagged human MUSK assessed as percent of control at 50000 nM by qPCR analysis relative to control; set-up: scale not given: the % may be the effect or the level left
[21] = target: Serine/threonine-protein kinase NLK (Homo sapiens) (UniProt Q9UBE8); assay: Inhibition of DNA-tagged human NLK assessed as percent of control at 50000 nM by qPCR analysis relative to control; set-up: scale not given: the % may be the effect or the level left
[22] = target: Phosphatidylinositol 5-phosphate 4-kinase type-2 gamma (Homo sapiens) (UniProt Q8TBX8); assay: Inhibition of DNA-tagged human PIP5K2C assessed as percent of control at 50000 nM by qPCR analysis relative to control; set-up: scale not given: the % may be the effect or the level left
[23] = target: cAMP-dependent protein kinase catalytic subunit alpha (Homo sapiens) (UniProt P17612); assay: Inhibition of DNA-tagged human PKAC-alpha assessed as percent of control at 50000 nM by qPCR analysis relative to control; set-up: scale not given: the % may be the effect or the level left
[24] = target: Protein kinase C eta type (Homo sapiens) (UniProt P24723); assay: Inhibition of DNA-tagged human PRKCH assessed as percent of control at 50000 nM by qPCR analysis relative to control; set-up: scale not given: the % may be the effect or the level left
[25] = target: Interferon-induced, double-stranded RNA-activated protein kinase (Homo sapiens) (UniProt P19525); assay: Inhibition of DNA-tagged human PRKR assessed as percent of control at 50000 nM by qPCR analysis relative to control; set-up: scale not given: the % may be the effect or the level left
[26] = target: Rho-associated protein kinase 1 (Homo sapiens) (UniProt Q13464); assay: Inhibition of DNA-tagged human ROCK1 assessed as percent of control at 50000 nM by qPCR analysis relative to control; set-up: scale not given: the % may be the effect or the level left
[27] = target: Ribosomal protein S6 kinase alpha-5 (Homo sapiens) (UniProt O75582); assay: Inhibition of DNA-tagged human N-terminal RPS6KA5 kinase domain 1 assessed as percent of control at 50000 nM by qPCR analysis relative to control; set-up: scale not given: the % may be the effect or the level left
[28] = target: Ribosomal protein S6 kinase alpha-2 (Homo sapiens) (UniProt Q15349); assay: Inhibition of DNA-tagged human N-terminal RSK3 kinase domain 1 assessed as percent of control at 50000 nM by qPCR analysis relative to control; set-up: scale not given: the % may be the effect or the level left
[29] = target: SRSF protein kinase 1 (Homo sapiens) (UniProt Q96SB4); assay: Inhibition of DNA-tagged human SRPK1 assessed as percent of control at 50000 nM by qPCR analysis relative to control; set-up: scale not given: the % may be the effect or the level left
[30] = target: Serine/threonine-protein kinase TAO1 (Homo sapiens) (UniProt Q7L7X3); assay: Inhibition of DNA-tagged human TAOK1 assessed as percent of control at 50000 nM by qPCR analysis relative to control; set-up: scale not given: the % may be the effect or the level left

Sequence of Phosphatidylinositol 5-phosphate 4-kinase type-2 gamma (Homo sapiens) (Q8TBX8 whole entry): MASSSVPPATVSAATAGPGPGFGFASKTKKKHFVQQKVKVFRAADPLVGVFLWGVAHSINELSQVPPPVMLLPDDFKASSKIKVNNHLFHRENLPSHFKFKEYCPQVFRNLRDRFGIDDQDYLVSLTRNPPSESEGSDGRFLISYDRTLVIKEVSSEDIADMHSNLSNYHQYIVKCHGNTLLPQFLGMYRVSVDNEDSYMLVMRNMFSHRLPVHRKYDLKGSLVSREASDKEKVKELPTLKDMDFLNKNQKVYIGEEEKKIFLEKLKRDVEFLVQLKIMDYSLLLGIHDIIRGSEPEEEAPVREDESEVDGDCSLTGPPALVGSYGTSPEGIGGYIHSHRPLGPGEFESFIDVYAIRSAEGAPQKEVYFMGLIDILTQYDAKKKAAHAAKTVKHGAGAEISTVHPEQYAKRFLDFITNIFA
Sequence of Calcium/calmodulin-dependent protein kinase type II subunit beta (Homo sapiens) (Q13554 whole entry): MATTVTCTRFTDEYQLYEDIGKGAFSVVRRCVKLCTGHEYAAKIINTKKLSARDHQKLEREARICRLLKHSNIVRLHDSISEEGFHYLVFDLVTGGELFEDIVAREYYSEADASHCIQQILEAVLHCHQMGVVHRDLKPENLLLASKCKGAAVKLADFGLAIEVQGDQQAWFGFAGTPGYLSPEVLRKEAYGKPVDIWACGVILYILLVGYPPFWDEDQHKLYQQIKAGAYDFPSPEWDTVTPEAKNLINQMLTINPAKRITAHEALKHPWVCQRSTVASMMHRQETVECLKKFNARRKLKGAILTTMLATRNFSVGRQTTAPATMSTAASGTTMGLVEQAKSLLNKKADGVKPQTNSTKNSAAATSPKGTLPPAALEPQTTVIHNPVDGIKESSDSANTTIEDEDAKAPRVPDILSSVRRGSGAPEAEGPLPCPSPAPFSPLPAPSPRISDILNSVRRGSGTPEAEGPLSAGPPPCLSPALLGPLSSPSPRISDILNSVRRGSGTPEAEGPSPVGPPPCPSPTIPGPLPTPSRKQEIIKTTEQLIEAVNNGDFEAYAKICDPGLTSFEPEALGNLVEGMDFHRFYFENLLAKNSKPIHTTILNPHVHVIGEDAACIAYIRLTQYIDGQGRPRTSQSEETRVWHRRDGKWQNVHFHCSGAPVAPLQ
Sequence of Leucine-rich repeat serine/threonine-protein kinase 2 (Homo sapiens) (Q5S007 whole entry): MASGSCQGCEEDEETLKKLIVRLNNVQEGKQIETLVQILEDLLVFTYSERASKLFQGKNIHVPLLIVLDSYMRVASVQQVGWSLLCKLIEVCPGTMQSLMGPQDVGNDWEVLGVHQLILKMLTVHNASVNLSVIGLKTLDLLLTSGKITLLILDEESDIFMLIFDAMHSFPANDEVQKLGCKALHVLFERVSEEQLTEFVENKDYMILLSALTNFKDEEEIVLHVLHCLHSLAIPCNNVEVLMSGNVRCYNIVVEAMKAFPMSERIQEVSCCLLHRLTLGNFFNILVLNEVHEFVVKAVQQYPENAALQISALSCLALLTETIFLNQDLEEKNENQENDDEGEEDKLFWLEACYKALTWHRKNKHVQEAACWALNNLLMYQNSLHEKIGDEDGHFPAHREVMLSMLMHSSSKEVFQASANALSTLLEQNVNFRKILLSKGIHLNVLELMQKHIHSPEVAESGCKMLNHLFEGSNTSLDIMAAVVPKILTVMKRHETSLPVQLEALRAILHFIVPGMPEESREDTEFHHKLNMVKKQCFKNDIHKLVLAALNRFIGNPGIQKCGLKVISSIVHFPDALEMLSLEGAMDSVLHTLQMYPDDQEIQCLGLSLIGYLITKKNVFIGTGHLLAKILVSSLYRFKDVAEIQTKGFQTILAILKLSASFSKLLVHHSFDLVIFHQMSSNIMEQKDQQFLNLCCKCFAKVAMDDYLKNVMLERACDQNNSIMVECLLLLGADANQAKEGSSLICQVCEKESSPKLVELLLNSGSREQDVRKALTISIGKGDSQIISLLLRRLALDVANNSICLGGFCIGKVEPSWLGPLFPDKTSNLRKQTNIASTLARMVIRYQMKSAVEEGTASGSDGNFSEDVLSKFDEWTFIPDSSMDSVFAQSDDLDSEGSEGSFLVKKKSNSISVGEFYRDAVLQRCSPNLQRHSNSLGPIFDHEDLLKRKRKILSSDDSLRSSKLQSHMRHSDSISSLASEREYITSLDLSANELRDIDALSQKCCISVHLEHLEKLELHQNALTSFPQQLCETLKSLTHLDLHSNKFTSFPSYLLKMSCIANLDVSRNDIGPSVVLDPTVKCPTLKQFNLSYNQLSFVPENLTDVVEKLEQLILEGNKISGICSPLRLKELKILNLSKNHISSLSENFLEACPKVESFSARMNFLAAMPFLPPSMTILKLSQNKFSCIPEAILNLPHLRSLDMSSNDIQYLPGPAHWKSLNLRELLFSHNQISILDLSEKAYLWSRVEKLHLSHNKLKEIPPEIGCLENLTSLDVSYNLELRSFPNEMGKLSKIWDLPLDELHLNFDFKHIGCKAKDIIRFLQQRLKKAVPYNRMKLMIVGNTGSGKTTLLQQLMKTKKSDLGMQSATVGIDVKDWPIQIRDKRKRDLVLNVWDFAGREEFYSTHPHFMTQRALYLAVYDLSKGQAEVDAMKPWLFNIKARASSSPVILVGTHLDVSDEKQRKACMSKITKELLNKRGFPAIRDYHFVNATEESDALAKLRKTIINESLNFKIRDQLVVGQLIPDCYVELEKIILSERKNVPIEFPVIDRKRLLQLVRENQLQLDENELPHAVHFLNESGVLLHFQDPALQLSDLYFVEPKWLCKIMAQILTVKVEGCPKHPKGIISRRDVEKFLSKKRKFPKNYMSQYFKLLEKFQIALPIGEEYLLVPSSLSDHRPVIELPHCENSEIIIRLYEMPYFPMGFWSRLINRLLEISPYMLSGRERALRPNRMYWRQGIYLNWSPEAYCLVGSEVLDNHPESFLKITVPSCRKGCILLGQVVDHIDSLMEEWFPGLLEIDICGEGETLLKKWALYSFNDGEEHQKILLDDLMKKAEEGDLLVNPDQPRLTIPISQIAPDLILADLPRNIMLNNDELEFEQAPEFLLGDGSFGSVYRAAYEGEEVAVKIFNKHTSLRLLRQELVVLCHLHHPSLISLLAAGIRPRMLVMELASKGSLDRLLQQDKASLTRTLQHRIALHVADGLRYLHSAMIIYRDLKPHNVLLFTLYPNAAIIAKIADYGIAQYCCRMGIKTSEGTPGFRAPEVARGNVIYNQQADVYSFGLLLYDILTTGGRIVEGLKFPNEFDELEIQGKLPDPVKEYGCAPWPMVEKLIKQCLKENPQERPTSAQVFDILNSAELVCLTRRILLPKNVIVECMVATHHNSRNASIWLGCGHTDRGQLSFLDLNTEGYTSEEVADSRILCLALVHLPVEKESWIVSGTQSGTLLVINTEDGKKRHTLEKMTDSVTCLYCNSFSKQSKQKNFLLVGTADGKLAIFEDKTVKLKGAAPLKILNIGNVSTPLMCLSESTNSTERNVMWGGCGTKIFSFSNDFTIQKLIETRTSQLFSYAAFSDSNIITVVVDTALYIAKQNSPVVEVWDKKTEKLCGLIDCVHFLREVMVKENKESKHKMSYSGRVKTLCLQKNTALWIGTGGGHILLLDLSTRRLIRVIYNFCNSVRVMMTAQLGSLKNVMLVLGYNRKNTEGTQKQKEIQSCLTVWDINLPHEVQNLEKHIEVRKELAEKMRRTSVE
Sequence of Interferon-induced, double-stranded RNA-activated protein kinase (Homo sapiens) (P19525 whole entry): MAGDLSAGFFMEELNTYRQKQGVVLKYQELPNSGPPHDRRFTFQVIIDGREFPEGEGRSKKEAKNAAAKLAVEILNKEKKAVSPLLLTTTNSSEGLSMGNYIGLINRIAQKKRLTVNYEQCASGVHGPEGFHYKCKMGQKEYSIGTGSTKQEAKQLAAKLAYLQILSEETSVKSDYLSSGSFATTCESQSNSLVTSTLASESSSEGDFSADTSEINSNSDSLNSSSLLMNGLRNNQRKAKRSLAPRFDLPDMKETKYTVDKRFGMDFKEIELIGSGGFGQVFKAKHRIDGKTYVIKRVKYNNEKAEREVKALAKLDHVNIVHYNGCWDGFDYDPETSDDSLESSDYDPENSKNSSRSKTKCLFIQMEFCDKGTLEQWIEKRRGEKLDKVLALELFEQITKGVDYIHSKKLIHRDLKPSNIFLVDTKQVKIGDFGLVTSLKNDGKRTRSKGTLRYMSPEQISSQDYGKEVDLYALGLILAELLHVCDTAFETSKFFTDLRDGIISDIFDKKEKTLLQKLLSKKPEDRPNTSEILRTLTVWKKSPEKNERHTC
Sequence of Protein kinase C eta type (Homo sapiens) (P24723 whole entry): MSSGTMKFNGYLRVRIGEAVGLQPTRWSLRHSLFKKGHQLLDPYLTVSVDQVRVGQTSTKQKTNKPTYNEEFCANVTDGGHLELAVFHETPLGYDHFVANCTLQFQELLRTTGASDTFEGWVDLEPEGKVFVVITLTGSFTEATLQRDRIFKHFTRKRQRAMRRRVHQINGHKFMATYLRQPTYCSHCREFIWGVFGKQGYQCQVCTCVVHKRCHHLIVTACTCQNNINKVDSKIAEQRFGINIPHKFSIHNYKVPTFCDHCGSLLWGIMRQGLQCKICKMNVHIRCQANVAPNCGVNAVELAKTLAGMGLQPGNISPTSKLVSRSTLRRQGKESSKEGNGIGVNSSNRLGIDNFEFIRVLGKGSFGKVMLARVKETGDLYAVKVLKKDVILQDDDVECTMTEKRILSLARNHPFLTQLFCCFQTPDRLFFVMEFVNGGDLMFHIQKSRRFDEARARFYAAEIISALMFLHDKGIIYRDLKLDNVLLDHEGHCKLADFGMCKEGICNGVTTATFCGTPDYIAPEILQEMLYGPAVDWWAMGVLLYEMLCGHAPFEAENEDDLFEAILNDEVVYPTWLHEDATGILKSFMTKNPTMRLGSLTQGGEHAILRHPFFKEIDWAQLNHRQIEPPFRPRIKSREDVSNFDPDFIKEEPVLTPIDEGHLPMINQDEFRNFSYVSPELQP
Sequence of Leucine-rich repeat serine/threonine-protein kinase 2 (Homo sapiens), Q5S007 [G2019S] (Q5S007 whole entry G2019S): as the sequence (Q5S007 whole entry) above, with G2019S counted along it

Q: With `CN1C(=O)/C(=C2/C(=O)Nc3ccccc32)c2ccccc21` as the compound, how does the Activity [1] read?
A: 100%

Q: And the Activity [2]?
A: 100%

Q: And the Activity [3]?
A: 100%

Q: What about the Activity [4] of the same compound?
A: 94%

Q: And the Activity [5]?
A: 91%

Q: And the Activity [6]?
A: 64%

Q: What about the Activity [7] of the same compound?
A: 84%

Q: And the Activity [8]?
A: 84%

Q: And the Activity [9]?
A: 100%

Q: And the Activity [10]?
A: 100%

Q: And the Activity [11]?
A: 100%

Q: What about the Activity [12] of the same compound?
A: 86%

Q: And the Activity [13]?
A: 99%

Q: And the Activity [14]?
A: 74%

Q: What about the Activity [15] of the same compound?
A: 81%

Q: And the Activity [16]?
A: Active

Q: What about the Activity [17] of the same compound?
A: 96%

Q: And the Activity [18]?
A: 74%

Q: And the Activity [19]?
A: 92%

Q: What about the Activity [20] of the same compound?
A: 86%

Q: What about the Activity [21] of the same compound?
A: 100%

Q: What about the Activity [22] of the same compound?
A: 55%

Q: What about the Activity [23] of the same compound?
A: 93%

Q: What about the Activity [24] of the same compound?
A: 100%

Q: And the Activity [25]?
A: 80%

Q: What about the Activity [26] of the same compound?
A: 87%

Q: What about the Activity [27] of the same compound?
A: 100%

Q: And the Activity [28]?
A: 100%

Q: And the Activity [29]?
A: 100%

Q: And the Activity [30]?
A: 87%
